From ChEMBL document CHEMBL5052846, “Pyridine derivatives as kif18a inhibitors” (2021) come the findings set out here.

The structures appear in SMILES notation.

This experiment deals with T1, Kinesin-like protein KIF18A (Homo sapiens, UniProt Q8NI77).
T1 sequence (Q8NI77 whole entry): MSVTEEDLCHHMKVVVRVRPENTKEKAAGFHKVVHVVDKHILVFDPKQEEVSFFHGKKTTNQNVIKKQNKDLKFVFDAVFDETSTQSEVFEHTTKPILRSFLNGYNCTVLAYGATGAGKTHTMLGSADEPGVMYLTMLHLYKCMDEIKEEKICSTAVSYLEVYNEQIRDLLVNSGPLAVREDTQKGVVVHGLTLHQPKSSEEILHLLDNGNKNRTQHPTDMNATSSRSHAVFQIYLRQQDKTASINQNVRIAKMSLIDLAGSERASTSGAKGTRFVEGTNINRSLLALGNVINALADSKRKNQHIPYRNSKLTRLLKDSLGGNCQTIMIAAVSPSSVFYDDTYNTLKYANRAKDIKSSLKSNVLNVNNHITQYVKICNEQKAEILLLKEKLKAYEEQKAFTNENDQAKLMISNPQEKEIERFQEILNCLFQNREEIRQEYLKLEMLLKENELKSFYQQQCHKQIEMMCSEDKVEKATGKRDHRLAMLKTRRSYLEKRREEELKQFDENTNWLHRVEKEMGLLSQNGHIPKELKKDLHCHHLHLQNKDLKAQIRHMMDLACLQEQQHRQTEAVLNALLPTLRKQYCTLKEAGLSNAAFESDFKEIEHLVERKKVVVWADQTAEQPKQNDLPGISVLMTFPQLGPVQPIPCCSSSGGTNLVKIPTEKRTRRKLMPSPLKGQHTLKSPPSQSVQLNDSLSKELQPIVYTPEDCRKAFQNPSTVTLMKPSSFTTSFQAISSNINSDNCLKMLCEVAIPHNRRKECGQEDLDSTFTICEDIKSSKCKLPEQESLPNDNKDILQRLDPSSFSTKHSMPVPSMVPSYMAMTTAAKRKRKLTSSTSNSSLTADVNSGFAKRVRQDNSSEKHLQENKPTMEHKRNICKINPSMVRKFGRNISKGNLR
Put plainly: Inhibition of recombinant His-tagged human KIF18A (1 to 467 residues) expressed in baculovirus expression system assessed as inhibition of microtubule-stimulated ATPase activity preincubated for 15 mins followed by ATP addition and further incubated for 15 mins and measured after 40 mins by ADP-Glo reagent based assay. Background: ADP-Glo first removes unused ATP, then detects ADP through luciferase.

With `CC(C)(C)NS(=O)(=O)c1cccc(NC(=O)c2ccc(N3CC[C@@H](O)C3)nc2N2CCC3(CC2)CC3)c1`, the IC50 (commonly the concentration that inhibits the measured activity by half) is 189 nM.
